# Measured values taken from EP4775570A1, “CYP11A1 INHIBITOR, PREPARATION METHOD THEREFOR AND USE THEREOF” (Shenzhen Zhongge Biological Technology Co., Ltd., priority 2023, dated 2025).
# pIC50: −log10 of the molar value.
# Biological target: T1, CYP11A1 (Homo sapiens, UniProt P05108)
# T1 construct: host or cells: NCI-H295R
# T1 sequence (P05108 40-521): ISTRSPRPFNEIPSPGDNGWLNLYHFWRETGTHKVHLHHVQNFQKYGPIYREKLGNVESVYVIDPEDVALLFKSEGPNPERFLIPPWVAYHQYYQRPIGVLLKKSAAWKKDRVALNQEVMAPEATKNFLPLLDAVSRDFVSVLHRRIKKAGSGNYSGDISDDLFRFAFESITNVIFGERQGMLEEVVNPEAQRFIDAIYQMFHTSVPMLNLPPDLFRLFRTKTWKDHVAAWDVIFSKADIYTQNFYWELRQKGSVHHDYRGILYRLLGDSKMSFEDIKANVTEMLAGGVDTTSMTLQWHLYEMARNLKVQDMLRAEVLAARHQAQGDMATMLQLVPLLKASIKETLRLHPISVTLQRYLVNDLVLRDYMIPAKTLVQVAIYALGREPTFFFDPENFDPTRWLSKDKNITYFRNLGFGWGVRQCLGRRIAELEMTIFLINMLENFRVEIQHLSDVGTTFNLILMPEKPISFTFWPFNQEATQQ
# Experiment: NCI-H295R cellular pregnenolone biosynthesis inhibition assay (ELISA method)
# Type: cell-based
# Settings: IC50, NCI-H295R cells, 3 days incubation, pregnenolone in cell supernatant by ELISA
# Protocol: The experiment aims to test the inhibitory effect of the compounds of the present disclosure on cellular pregnenolone biosynthesis, and to assess the inhibitory effect of the compounds on CYP11A1 target based on their IC50 values.
# NCI-H295R cells (MINGZHOUBIO, MZ-2138) cultured in NCI-H295R complete medium (MINGZHOUBIO, MCM-0399).
# Using culture medium, NCI-H295R cells were seeded into a new 384-well cell culture plate (Greiner, 781091) at a density of 5,000 cells per well, with 45µL of cell suspension per well. The test compounds were prepared by adding 5µL of compound solution at 10× concentration to each well, to a maximum final concentration of 10µM, followed by 3× serial dilution for 10 points, with a final DMSO concentration of 0.1%, centrifuging at 1,000 rpm for 1 minute at room temperature, and then incubating in a 5% CO2 cell incubator at 37°C for 3 days.
# Pregnenolone ELISA kit (Abnova, KA1912) was used for detecting the content of pregnenolone in the supernatant of cell culture. Before detection, the reagents were allowed to come back to room temperature for 1 hour. After taking out the 384-well plate, the cellular supernatant was pipetted and subjected to 5× dilution with the Assay Buffer provided in the kit. A working solution of competitive molecule and a washing solution in accordance with the instructions was prepared. 50µL of diluted cellular supernatant were pipetted into the 96-well plate provided in the ELISA kit, added with 100µL of working solution of competitive molecule per well and the plate was incubated at room temperature for 1.5 hours. After discarding the liquid, the plate was washed with 300µL of washing solution per well three times and dried. After adding 150 µL of substrate chromogenic solution per well, the plate was incubated at room temperature for 10-15 minutes. After adding 50 µL of termination solution per well, the plate was incubated at room temperature for 10-15 minutes and read for absorbance at 450nm with Envision HTS Multilabel Reader.
# The wells added with 1µM ODM-208 were defined as 100% inhibition (positive control), the wells containing DMSO at a final concentration of 0.1% were defined as 0% inhibition (negative control), and inhibitory ratio = (absorbance of tested sample - average absorbance of negative control)/(average absorbance of positive control - average absorbance of negative control)*100%. The data were subjected to four-parameter fitting using GraphPad Prism to calculate the IC50 values of the compounds.
row,SMILES,pIC50
1,CS(=O)(=O)N1CCC(COc2cc(F)c(CN3Cc4ccccc4C3)cc2C#N)CC1 [compound 30],> 7.00

# Same assay, conditions: NCI-H295R cells, 3 days incubation, pregnenolone in cell supernatant by ELISA; read-out: IC50
row,SMILES,pIC50
1,Cn1c(CN2Cc3cccnc3C2)c(F)cc(CCC2CCN(S(C)(=O)=O)CC2)c1=O [compound 98],6.52 to 7.00
2,CC(=O)N1CCN(CCc2cc(F)c(CN3Cc4ccccc4C3)n(C)c2=O)CC1 [compound 119],6.52 to 7.00
3,COc1cc(CN2Cc3ccccc3C2)ccc1COC1CCN(S(C)(=O)=O)CC1 [compound 42],< 6.52
4,CS(=O)(=O)N1CCC(CSc2ccc(CN3Cc4ccccc4C3)cc2F)CC1 [compound 43],6.52 to 7.00
5,CNC(=O)c1cc(CN2Cc3ccccc3C2)ccc1OCC1CCN(S(C)(=O)=O)CC1 [compound 24],< 6.52
6,COc1cc(CN2Cc3ccccc3C2)c(F)cc1CCC1CCN(S(C)(=O)=O)CC1 [compound 41],6.52 to 7.00
7,CS(=O)(=O)N1CCC(CN2CCOc3cc(CN4Cc5ccccc5C4)ccc32)CC1 [compound 57],< 6.52
8,CS(=O)(=O)N1CCC(COc2ccc(CN3Cc4ccccc4C3)cc2-c2nccs2)CC1 [compound 38],< 6.52
9,COc1cc(CN2Cc3ccccc3C2)ccc1CCC1CCN(C(=O)C(F)(F)F)CC1 [compound 71],6.52 to 7.00
10,COc1cc(CN2Cc3ccccc3C2)ccc1OCC1CCN(S(C)(=O)=O)CC1 [compound 19],6.52 to 7.00
11,COc1cc(CN2Cc3ccccc3C2)ccc1CCC1CCN(S(=O)(=O)C(F)(F)F)CC1 [compound 77],6.52 to 7.00
12,C=CS(=O)(=O)N1CCC(CCc2ccc(CN3Cc4ccccc4C3)cc2OC)CC1 [compound 82],6.52 to 7.00
13,COc1cc(CN2Cc3ccccc3C2)ccc1Oc1cccc2c1CCN(S(C)(=O)=O)C2 [compound 45],< 6.52
14,Cn1c(CN2Cc3ccncc3C2)c(F)cc(CCC2CCN(S(C)(=O)=O)CC2)c1=O [compound 99],< 6.52
15,Cn1c(CN2Cc3ccc(F)cc3C2)c(F)cc(CCC2CCN(S(C)(=O)=O)CC2)c1=O [compound 101],< 6.52
16,CCOc1cc(CN2Cc3ccccc3C2)ccc1CCC1CCN(S(C)(=O)=O)CC1 [compound 73],6.52 to 7.00
17,CS(=O)(=O)N1CCC(COc2ccc(CN3Cc4ccccc4C3)cc2OC(F)(F)F)CC1 [compound 20],6.52 to 7.00
18,COc1cc(CN2Cc3ccccc3C2)ccc1CCC1CCS(=O)(=O)CC1 [compound 88],< 6.52
19,CC(=O)N1CCN(c2cccc(Oc3ccc(CN4Cc5ccccc5C4)cc3F)c2)CC1 [compound 47],< 6.52
20,OCCN1CCC(COc2cc(F)c(CN3Cc4ccccc4C3)cc2Br)CC1 [compound 55],< 6.52

row,SMILES,pIC50
1,CC(C)c1cc(CN2Cc3ccccc3C2)c(F)cc1OCC1CCN(S(C)(=O)=O)CC1 [compound 31],< 6.52
2,CS(=O)(=O)N1CCC(COc2cc(F)c(CN3Cc4ccccc4C3)cc2Br)CC1 [compound 25],> 7.00
3,CS(=O)(=O)N1CCC(COc2ccc(CN3Cc4ccccc4C3)cc2Cl)CC1 [compound 16],> 7.00
4,Cn1c(CN2Cc3ccccc3C2)c(F)cc(-c2ccc3c(c2)CCN(S(C)(=O)=O)C3)c1=O [compound 120],> 7.00
5,Cn1c(CN2Cc3ccccc3C2)c(F)cc(CCC2CCCN(S(C)(=O)=O)C2)c1=O (stereo not drawn) [compound 91],< 6.52
6,CS(=O)(=O)N1CCC(CCc2ccc(CN3Cc4ccccc4C3)o2)CC1 [compound 83],< 6.52
7,COc1cc(CN2Cc3ccccc3C2)ccc1C=CC1CCN(C(=O)OC(C)(C)C)CC1 [compound 50],> 7.00
8,C=C(C)c1cc(CN2Cc3ccccc3C2)c(F)cc1OCC1CCN(S(C)(=O)=O)CC1 [compound 28],> 7.00
9,CS(=O)(=O)N1CCC(CCc2cc(F)c(CN3Cc4ccccc4C3)cc2C#N)CC1 [compound 59],> 7.00
10,[2H]C([2H])(c1c(F)cc(CCC2CCN(S(C)(=O)=O)CC2)c(=O)n1C)N1Cc2ccccc2C1 [compound 116],> 7.00
11,Cn1cc(OCC2CCN(S(C)(=O)=O)CC2)c(=O)cc1CN1Cc2ccccc2C1 [compound 1],< 6.52
12,Cn1c(CN2Cc3ccccc3C2)c(F)cc(C=CC2CCN(C(=O)OC(C)(C)C)CC2)c1=O [compound 105],> 7.00
13,CS(=O)(=O)N1CCC(CCc2sc(CN3Cc4ccccc4C3)cc2Br)CC1 [compound 95],< 6.52
14,CS(=O)(=O)N1CCC(CCc2ccc(CN3Cc4ccccc4C3)cc2C#N)CC1 [compound 54],> 7.00
15,COc1cc(CN2Cc3ccccc3C2)ccc1C#CC1=CCS(=O)(=O)CC1 [compound 97],< 6.52
16,COc1cc(CN2Cc3cccc(F)c3C2)c(F)cc1CCC1CCN(S(C)(=O)=O)CC1 [compound 66],> 7.00
17,Cn1c(CN2Cc3ccccc3C2)c(F)cc(C(F)=CC2CCN(C(=O)OC(C)(C)C)CC2)c1=O [compound 128],6.52 to 7.00
18,COC(=O)N1CCC(CCc2ccc(CN3Cc4ccccc4C3)cc2OC)CC1 [compound 80],> 7.00
19,Cn1c(CN2Cc3ccccc3C2)c(F)cc(C(O)CC2CCN(C(=O)OC(C)(C)C)CC2)c1=O (stereo not drawn) [compound 122],> 7.00

# The remaining lines, values ahead:
row,pIC50,SMILES
1,> 7.00,Cn1c(CN2Cc3ccccc3C2)c(F)cc(C(F)CC2CCN(S(C)(=O)=O)CC2)c1=O (stereo not drawn) [compound 124]
2,> 7.00,Cn1c(CN2Cc3ccccc3C2)ccc(CCC2CCN(S(C)(=O)=O)CC2)c1=O [compound 90]
3,> 7.00,[2H]C(c1c(F)cc(CCC2CCN(S(C)(=O)=O)CC2)c(=O)n1C)N1Cc2ccccc2C1 (stereo not drawn) [compound 108]
4,> 7.00,CC(C)Oc1cc(CN2Cc3ccccc3C2)ccc1OCC1CCN(S(C)(=O)=O)CC1 [compound 21]
5,> 7.00,CS(=O)(=O)N1CCC(CCc2ccc(CN3Cc4ccccc4C3)cc2Cl)CC1 [compound 84]
6,> 7.00,COc1cc(CN2Cc3ccccc3C2)ccc1CCC1CCN(C(=O)CC#N)CC1 [compound 68]
7,> 7.00,CS(=O)(=O)N1CCC(COc2cc(F)c(CN3Cc4ccccc4C3)cc2O)CC1 [compound 52]
8,> 7.00,CC(C)c1cc(CN2Cc3ccccc3C2)ccc1OCC1CCN(S(C)(=O)=O)CC1 [compound 14]
9,> 7.00,[2H]C([2H])([2H])n1c(CN2Cc3ccccc3C2)c(F)cc(CCC2CCN(S(C)(=O)=O)CC2)c1=O [compound 106]
10,> 7.00,CCn1c(CN2Cc3ccccc3C2)c(F)cc(CCC2CCN(S(C)(=O)=O)CC2)c1=O [compound 107]
11,> 7.00,CNC(=O)N1CCC(CCc2ccc(CN3Cc4ccccc4C3)cc2OC)CC1 [compound 79]
12,> 7.00,CC1CC(C#Cc2cc(F)c(CN3Cc4ccccc4C3)n(C)c2=O)CCN1C(=O)OC(C)(C)C (stereo not drawn) [compound 115]
13,> 7.00,COc1cc(CN2Cc3ccccc3C2)ccc1CCC1CCN(S(=O)(=O)c2cccs2)CC1 [compound 78]
14,> 7.00,CCc1cc(CN2Cc3ccccc3C2)ccc1OCC1CCN(S(C)(=O)=O)CC1 [compound 13]
15,> 7.00,CC1CC(CCc2cc(F)c(CN3Cc4ccccc4C3)n(C)c2=O)CCN1S(C)(=O)=O (stereo not drawn) [compound 109]
16,> 7.00,Cn1c(CN2Cc3ccccc3C2)c(F)cc(CCC2CCN(S(C)(=O)=O)CC2(C)C)c1=O (stereo not drawn) [compound 114]
17,> 7.00,CC(=O)N1CCC(CCSc2ccc(CN3Cc4ccccc4C3)cc2F)CC1 [compound 49]
18,> 7.00,CC(C)(C)OC(=O)N1CCC(COc2cc(F)c(CN3Cc4ccccc4C3)cc2Br)CC1 [compound 46]
19,> 7.00,CS(=O)(=O)N1CCC(COc2c(F)cc(CN3Cc4ccccc4C3)cc2Br)CC1 [compound 34]
20,> 7.00,CCS(=O)(=O)N1CCC(CCc2ccc(CN3Cc4ccccc4C3)cc2OC)CC1 [compound 67]
21,> 7.00,C=Cc1cc(CN2Cc3ccccc3C2)ccc1OCC1CCN(S(C)(=O)=O)CC1 [compound 26]
22,> 7.00,COc1c(CCC2CCN(S(C)(=O)=O)CC2)cc(F)c(CN2Cc3ccccc3C2)c1F [compound 64]
23,> 7.00,COc1cc(CN2Cc3ccncc3C2)ccc1CCC1CCN(S(C)(=O)=O)CC1 [compound 63]
